The values that follow are results of earlier work, collected in PMC11047177 (ESMO Open, 2024).

Where two headings read alike, the source gives them in different places.

The conditions of data set [1]: cited from earlier work.
The conditions of data set [2]: cited from earlier work. This is another data set of the same source.
Setting [3] is: patients with advanced solid tumors.
Where [4] appears, read: advanced solid tumors, non-Hodgkin's lymphoma, or lower-risk myelodysplastic syndrome.

With `CC(=O)N1CCC(Nc2cc(C(=O)NC[C@H](O)CN3CCc4ccccc4C3)ncn2)CC1` [GSK3326595], the “Preliminary evidence of antitumor activity” value in data set [1] is “patients achieving PRs”. Further, in data set [1] (setting [3]), the TRAE Anemia is listed as 31%, the TRAE Dysgeusia is reported as 26%, the TRAE Fatigue is 39% and the TRAE Nausea is 31%.

Regarding `Nc1nc2cc(CC[C@H]3C[C@@H](n4ccc5c(N)ncnc54)[C@H](O)[C@@H]3O)ccc2cc1Br` [JNJ-64619178], in data set [2] (setting [4]), the TRAE Fatigue was 32%, the TRAE Nausea is on record as 39% and the TRAE thrombocytopenia was 52%. The “Preliminary evidence of antitumor activity” value in data set [2] was “patients achieving PRs”.
